Experimental data taken from PMC10458824, “Identification of Xanthine Oxidase Inhibitors from Celery Seeds Using Affinity Ultrafiltration–Liquid Chromatography–Mass Spectrometry” (Molecules, 2023).
“And” between values parts separate entries of the source, which are not always exact repeats. Identical values can stand only once.

Assays:
[1] = target: T1, Xanthine oxidase (XOD), febuxostat binding domain (Bos taurus, UniProt P80457); test: Affinity ultrafiltration LC-MS (UF-LC-MS) screening, febuxostat-masked vs unmasked XOD; conditions: peak area with vs without febuxostat preincubation of XOD; extract 2 mg/mL
T1 construct: purchased Sigma-Aldrich Co., Ltd. (St. Louis, MO, USA)
Description: Based on the variation in the chromatogram with and without febuxostat binding in the XOD, the binding degree was used to evaluate the febuxostat competitive capacity of compounds in celery seeds. The binding degree (BD) was calculated as follows: BD(%)=Af−Ano_f/Af×100%
Af and Ano_f represent the peak area of compounds in the chromatogram with and without preincubation with febuxostat, respectively.
Identification of potential XOD inhibitors from celery seed extract was performed using UF–LC–MS according to a previous study with modification. To prepare the XOD interaction solution, 250 μL of XOD (0.5 U/mL) was incubated with 50 μL of febuxostat (the XOD inhibitor, 500 μg/mL in 10% DMSO-PBS, masked group) to mask the druggable binding domain of XOD or 10% DMSO-PBS (vehicle control, unmasked group) at 37 °C for 45 min. The extract (50 μL at 2 mg/mL in methanol) was then added to the interaction solution for a further 45 min. After incubation, the mixtures were transferred to a 10 kDa molecule weight cut-off ultrafiltration filter and centrifuged at 14,500 rpm for 20 min. The membrane was washed 3 times with 450 μL ddH2O to remove the unbound molecules. […] The elution solution was then ultrafiltered in the new filter units as described above. The final products in the bottom of the filter units were analyzed using a HPLC–MS system.

Xanthine oxidase (XOD) = target: T2, Xanthine oxidase (XOD) (Bos taurus, UniProt P80457); test: XOD activity assay (absorbance at 290 nm, xanthine substrate); type: biochemical; conditions: XOD 0.02 U/mL, xanthine 0.48 mM, 37 °C, OD 290 nm; read-out: IC50 of XOD inhibition
T2 construct: purchased Sigma-Aldrich Co., Ltd. (St. Louis, MO, USA)
Description: The inhibitory effects of compounds were determined in the XOD activity assay according to a previous report with minor modifications. Celery seed extracts or the “hit” compounds from the UF–LC–MS screening assay were dissolved in PBS and prepared for a series of test solutions using 2-fold serial dilutions. Test solutions (50 μL) were mixed with XOD (50 μL at 0.02 U/mL) and incubated at 37 °C for 5 min. This was followed by the addition of XOD substrate xanthine (150 μL at 0.48 mM) and further incubation at 37 °C for 30 min. The optical density (OD) of each tube was then measured at 290 nm. Percent XOD inhibition was calculated using the following formula: %=1−A1−A2/A3−A4×100 where A1 was the absorbance of the production with the sample and XOD, A2 was the absorbance of the production with the sample, A3 was the absorbance of the production with PBS and XOD, and A4 was the absorbance of the production with PBS.

T2 sequence (P80457 whole entry): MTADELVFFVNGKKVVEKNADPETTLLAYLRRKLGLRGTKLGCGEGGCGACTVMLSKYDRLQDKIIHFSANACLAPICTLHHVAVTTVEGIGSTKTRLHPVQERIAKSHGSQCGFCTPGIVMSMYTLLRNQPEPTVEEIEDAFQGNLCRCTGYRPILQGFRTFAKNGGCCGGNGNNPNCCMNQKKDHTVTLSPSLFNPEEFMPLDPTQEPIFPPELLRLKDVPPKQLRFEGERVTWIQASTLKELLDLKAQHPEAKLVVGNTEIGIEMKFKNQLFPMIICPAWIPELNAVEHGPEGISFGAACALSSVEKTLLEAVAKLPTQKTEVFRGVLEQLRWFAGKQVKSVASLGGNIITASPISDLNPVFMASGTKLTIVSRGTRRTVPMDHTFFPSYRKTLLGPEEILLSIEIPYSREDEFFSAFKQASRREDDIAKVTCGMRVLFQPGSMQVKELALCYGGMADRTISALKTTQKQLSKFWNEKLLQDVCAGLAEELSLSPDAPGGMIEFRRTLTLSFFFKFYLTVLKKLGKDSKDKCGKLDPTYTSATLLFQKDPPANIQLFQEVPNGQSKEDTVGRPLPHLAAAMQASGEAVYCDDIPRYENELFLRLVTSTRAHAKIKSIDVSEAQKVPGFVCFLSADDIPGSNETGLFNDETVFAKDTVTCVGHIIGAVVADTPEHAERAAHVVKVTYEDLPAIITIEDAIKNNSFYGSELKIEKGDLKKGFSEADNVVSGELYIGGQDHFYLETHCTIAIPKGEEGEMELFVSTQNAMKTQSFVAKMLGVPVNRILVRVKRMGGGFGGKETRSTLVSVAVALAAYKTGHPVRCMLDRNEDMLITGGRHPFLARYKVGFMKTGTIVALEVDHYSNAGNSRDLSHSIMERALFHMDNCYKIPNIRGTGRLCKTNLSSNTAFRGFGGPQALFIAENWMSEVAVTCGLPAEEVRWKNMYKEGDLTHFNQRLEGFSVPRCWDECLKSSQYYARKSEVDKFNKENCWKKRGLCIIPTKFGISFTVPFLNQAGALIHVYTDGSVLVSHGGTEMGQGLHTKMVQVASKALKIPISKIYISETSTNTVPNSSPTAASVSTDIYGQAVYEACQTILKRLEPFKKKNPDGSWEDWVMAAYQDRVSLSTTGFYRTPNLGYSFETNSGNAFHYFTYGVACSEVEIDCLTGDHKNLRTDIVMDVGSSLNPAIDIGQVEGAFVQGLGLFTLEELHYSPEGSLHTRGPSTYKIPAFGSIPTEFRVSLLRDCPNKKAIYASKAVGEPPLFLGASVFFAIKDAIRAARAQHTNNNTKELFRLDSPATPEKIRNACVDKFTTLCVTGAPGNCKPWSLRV
T1 sequence (P80457 whole entry, the tested form may be a part): as the sequence (P80457 whole entry) above

## O=c1cc(-c2ccc(O)cc2)oc2cc(O)cc(O)c12 [Compound 24, Apigenin]
[1]
  binding degree (BD): 95.5%
Xanthine oxidase (XOD)
  IC50: 93 µM and 92.6 µM

## CCCC[C@H]1OC(=O)C2=C1CC[C@H](O)[C@H]2O [Compound 11, Senkyunolide J]
[1]
  binding degree (BD): 50.5%

## O=C(O)CC(=O)OC[C@H]1O[C@@H](Oc2cc(O)c3c(=O)cc(-c4ccc(O)cc4)oc3c2)[C@H](O[C@@H]2OC[C@](O)(CO)[C@H]2O)[C@@H](O)[C@@H]1O [Compound 19, 6″-Malonylapiin]
[1]
  binding degree (BD): 63.2%

## O=c1cc(-c2ccc(O)c(O)c2)oc2cc(O[C@@H]3O[C@H](CO)[C@@H](O)[C@H](O)[C@H]3O)cc(O)c12 [Compound 10, Luteolin 7-O-glucoside]
[1]
  binding degree (BD): 95.9%
Xanthine oxidase (XOD)
  IC50: 976 µM

## COc1cc(-c2cc(=O)c3c(O)cc(O)cc3o2)ccc1O [Compound 25, Chrysoeriol]
[1]
  binding degree (BD): 96.7%

## O=c1cc(-c2ccc(O)c(O)c2)oc2cc(O)cc(O)c12 [Compound 21, Luteolin]
[1]
  binding degree (BD): 97.8%
Xanthine oxidase (XOD)
  IC50: 69.2 µM

## COc1cc(-c2cc(=O)c3c(O)cc(OC4OC(COC(=O)CC(=O)O)C(O)C(O)C4OC4OCC(O)(CO)C4O)cc3o2)ccc1O (stereo not drawn) [Compound 20, Chrysoeriol 7-O-6″-malonyl apiosylglucoside]
[1]
  binding degree (BD): 52.0%

## C[C@@]1(O)CO[C@@H](O[C@H]2[C@H](Oc3cc(O)c4c(=O)cc(-c5ccc(O)c(O)c5)oc4c3)O[C@H](COC(=O)CC(=O)O)[C@@H](O)[C@@H]2O)[C@@H]1O [Compound 14, Luteolin 7-O-malonyl-apiosylglucoside]
[1]
  binding degree (BD): 93.6%

## O=c1cc(-c2ccc(O)c(O)c2)oc2cc(O[C@@H]3O[C@H](CO)[C@@H](O)[C@H](O)[C@H]3O[C@@H]3OC[C@](O)(CO)[C@H]3O)cc(O)c12 [Compound 9, Luteolin 7-O-apiosylglucoside]
[1]
  binding degree (BD): 89.1%
Xanthine oxidase (XOD)
  IC50: 3140 µM

## O=C(O)CC(=O)OC[C@H]1O[C@@H](Oc2cc(O)c3c(=O)cc(-c4ccc(O)c(O)c4)oc3c2)[C@H](O)[C@@H](O)[C@@H]1O [Compound 15, Luteolin 7-O-6′-malonyl glucoside]
[1]
  binding degree (BD): 99.0%
Xanthine oxidase (XOD)
  IC50: 2020 µM
